This is an account of results in US6664231B1, “Anti-fungal peptides” (priority 1993, dated 2003).

For series [1], the system named is Trychophyton rubrum ATCC 28188. Kind of series: organism not typed. It counts as cell-based. As to conditions: read-out: Minimum Fungicidal Concentration, Trychophyton rubrum ATCC 28188. How it is done: (§1) The anti-fungal activity of Domain III derived peptides was evaluated against a variety of fungal species, including species of Candida. Cryptococcus, Fusarium, Trichophyton, and Aspergillus, by an additional assay protocol utilizing Alamar Blue. Alamar Blue is an indicator dye formulated to measure quantitatively the proliferation of a variety of human or animal cells, bacteria, or fungi. It consists of an oxidation-reduction (REDOX) indicator that yields a colorimetric change in response to metabolic activity. For these experiments, species of Candida and Cryptococcus were grown in Sabouraud's dextrose broth (SDB) overnight. Strains of filamentous fungi (Aspergilius, Fusanum, Trichophyton) were obtained by irrigation of a confluent culture from a petri dish. Cells were washed and adjusted to a concentration of 5.0×10^3/mL in fresh SDB. […] Controls included amphotericin B, fluconazole, ketoconazole and griseofulvin. Antifungal drugs were also diluted in the same manner. Assays were performed in 96-well microuiter plates. […] The wells to be plated were determined by OD590 readings. The lowest concentration of peptide which maintained the blue color (or OD reading) of the blank was chosen along with the next two higher concentrations. Plates were allowed to grow for 18-48 hours depending on the rate of growth of each fungus. Minimal fungicidal activity (MFC) was determined as a 99.9% killing of the starting inoculum.

The test system of series [2] is Fusarium solani ATCC 36031. Description: microbe, parasite or virus in culture. The following applies: Fusarium solani, ATCC36031; read-out: Minimum Fungicidal Concentration, Fusarium solani ATCC 36031. It counts as cell-based. The procedure:
as §1

Series [3] deals with Aspergillus niger ATCC 16404. Description: microbe, parasite or virus in culture. It counts as cell-based. As to conditions: Aspergillus niger, ATCC16404; read-out: Minimum Fungicidal Concentration, Aspergillus niger ATCC 16404. How it is done: as §1
In series [4] the test system is Candida glabrata ATCC 2001. Description: microbe, parasite or virus in culture. It counts as cell-based. As to conditions: Nakaseomyces glabratus, ATCC2001; read-out: Minimum Fungicidal Concentration, Candida glabrata ATCC 2001. The procedure:
as §1

Another series deals with Aspergillus ATCC 13073. Description: microbe, parasite or virus in culture. As to conditions: Aspergillus, ATCC13073; read-out: Minimum Fungicidal Concentration, Aspergillus ATCC 13073. The class given is cell-based. The procedure: as §1
Series [5] has as its system Candida parapsilosis ATCC 22019. Kind of series: microbe, parasite or virus in culture. The class given is cell-based. The following applies: Lodderomyces parapsilosis, ATCC22019; read-out: Minimum Fungicidal Concentration, Candida parapsilosis ATCC 22019. The procedure:
as §1

Series [6] relates to Candida albicans (SLU-1 and ATCC strains). Description: microbe, parasite or virus in culture. It counts as cell-based. As to conditions: Candida albicans. How it is done: as §1
Series [7] relates to Cryptococcus neoformans ATCC 13690. Description: microbe, parasite or virus in culture. It counts as cell-based. The following applies: Cryptococcus neoformans, ATCC13690; read-out: Minimum Fungicidal Concentration, Cryptococcus neoformans ATCC 13690. How it is done: as §1
Series [8] has as its system human, rabbit and sheep red blood cells and several human tumor cell lines. As to conditions: cited from earlier work.
The subject of series [9] is gram-positive organisms Staphylococcus aureus, Staphylococcus epidermidis, Streptococcus faecalis, Bacillus subtilis, Micrococcus lysodeikricus, Listeria …. As to conditions: 10^−6 M or 160 μg/ml, pH 7.0 or 5.5; cited from earlier work.
A further series concerns gram-negative bacteria. As to conditions: as low as; cited from earlier work.
In series [10] the test system is Candida albicans and Candida parapsilosis. As to conditions: 10^−6 M, pH 7.0 or 5.5; cited from earlier work.

Read-outs that look alike come from different tables or passages of the source. Bounds are passed on as bounds.

With `OC(Cn1cncn1)(Cn1cncn1)c1ccc(F)cc1F` [Fluconazole, fluconazole], the MFC is over 10 µg/mL in series [1]; over 10 µg/mL in [2]; over 10 µg/mL in [3]; over 10 µg/mL in series [4]; over 50 µg/mL with Aspergillus ATCC 13073; over 10 µg/mL in series [5]. Besides, the MFC in [6] (ATCC10231, strain ATCC 10231, read-out: Minimum Fungicidal Concentration, Candida albicans ATCC 10231) was over 10 µg/mL; in [6] (ATCC18840, strain ATCC 18840, read-out: Minimum Fungicidal Concentration, Candida albicans ATCC 18840), over 10 µg/mL; in series [6] (ATCC26555, strain ATCC 26555, read-out: Minimum Fungicidal Concentration, Candida albicans ATCC 26555) it was over 10 µg/mL; in [6] (ATCC44808, strain ATCC 44808, read-out: Minimum Fungicidal Concentration, Candida albicans ATCC 44808), over 10 µg/mL; in series [6] (ATCC90028, strain ATCC 90028, read-out: Minimum Fungicidal Concentration, Candida albicans ATCC 90028), over 10 µg/mL; in series [6] (strain SLU-1, read-out: Minimum Fungicidal Concentration, Candida albicans SLU-1) it was over 10 µg/mL. The MFC in series [7] was over 10 µg/mL.

B1: BPI: bactericidal/permeability-increasing protein isolated from the granules of mammalian polymorphonuclear leukocytes (protein, UniProt P17213 32-487, looked up)
Bactericidal …: VNPGVVVRISQKGLDYASQQGTAALQKELKRIKIPDYSDSFKIKHLGKGHYSFYSMDIREFQLPSSQISMVPNVGLKFSISNANIKISGKWKAQKRFLKMSGNFDLSIEGMSISADLKLGSNPTSGKPTITCSSCSSHINSVHVHISKSKVGWLIQLFHKKIESALRNKMNSQVCEKVTNSVSSELQPYFQTLPVMTKIDSVAGINYGLVAPPATTAETLDVQMKGEFYSENHHNPPPFAPPVMEFPAAHDRMVYLGLSDYFFNTAGLVYQEAGVLKMTLRDDMIPKESKFRLTTKFFGTFLPEVAKKFPNMKIQIHVSASTPPHLSVQPTGLTFYPAVDVQAFAVLPNSSLASLFLIGMHTTGSMEVSAESNRLVGELKLDRLLLELKHSNIGPFPVELLQDIMNYIVPILVLPRVNEKLQKGFPLPTPARVQLYNVVLQPHQNFLLFGADVVYK
On to B1, for which, in [8], the “toxicity to higher eukaryotic cells” value is “non-toxic”. The “toxic effect on gram-positive organisms” value in series [9] is “no toxic effect”. The “concentration exhibiting anti-bacterial activity towards gram-negative bacteria” value in the series with gram-negative bacteria was 10^−8 to 10^−9 M. In addition, the “toxic effect on fungi” value in series [10] is given as “no toxic effect”.
